Measurements from ChEMBL document CHEMBL4842377, “Synthesis and biological evaluation of selective histone deacetylase 6 inhibitors as multifunctional agents against Alzheimer's disease” (Eur J Med Chem, 2021).
Activity calls are given as the source filed them. No cut-off for these calls is given here.

Experiments:
[1] = system: SH-SY5Y; experiment: Induction of neurogenesis in human SH-SY5Y cells assessed as induction of GAP-43 mRNA expression at 10 uM measured after 24 hrs by RT-PCR analysis relative to control; type: functional
[2] = system: SH-SY5Y; experiment: Induction of neurogenesis in human SH-SY5Y cells assessed as induction of MAP2 mRNA expression at 10 uM measured after 24 hrs by RT-PCR analysis relative to control; type: functional
[3] = system: SH-SY5Y; experiment: Induction of neurogenesis in human SH-SY5Y cells assessed as induction of N-myc mRNA expression at 10 uM measured after 24 hrs by RT-PCR analysis relative to control; type: functional
[4] = biological target: T1, Protein deacetylase HDAC6 (Homo sapiens, UniProt Q9UBN7); experiment: Inhibition of human HDAC6 using fluorogenic substrate incubated for 1 hrs by fluorescence plate reader assay
T1 sequence (Q9UBN7 whole entry): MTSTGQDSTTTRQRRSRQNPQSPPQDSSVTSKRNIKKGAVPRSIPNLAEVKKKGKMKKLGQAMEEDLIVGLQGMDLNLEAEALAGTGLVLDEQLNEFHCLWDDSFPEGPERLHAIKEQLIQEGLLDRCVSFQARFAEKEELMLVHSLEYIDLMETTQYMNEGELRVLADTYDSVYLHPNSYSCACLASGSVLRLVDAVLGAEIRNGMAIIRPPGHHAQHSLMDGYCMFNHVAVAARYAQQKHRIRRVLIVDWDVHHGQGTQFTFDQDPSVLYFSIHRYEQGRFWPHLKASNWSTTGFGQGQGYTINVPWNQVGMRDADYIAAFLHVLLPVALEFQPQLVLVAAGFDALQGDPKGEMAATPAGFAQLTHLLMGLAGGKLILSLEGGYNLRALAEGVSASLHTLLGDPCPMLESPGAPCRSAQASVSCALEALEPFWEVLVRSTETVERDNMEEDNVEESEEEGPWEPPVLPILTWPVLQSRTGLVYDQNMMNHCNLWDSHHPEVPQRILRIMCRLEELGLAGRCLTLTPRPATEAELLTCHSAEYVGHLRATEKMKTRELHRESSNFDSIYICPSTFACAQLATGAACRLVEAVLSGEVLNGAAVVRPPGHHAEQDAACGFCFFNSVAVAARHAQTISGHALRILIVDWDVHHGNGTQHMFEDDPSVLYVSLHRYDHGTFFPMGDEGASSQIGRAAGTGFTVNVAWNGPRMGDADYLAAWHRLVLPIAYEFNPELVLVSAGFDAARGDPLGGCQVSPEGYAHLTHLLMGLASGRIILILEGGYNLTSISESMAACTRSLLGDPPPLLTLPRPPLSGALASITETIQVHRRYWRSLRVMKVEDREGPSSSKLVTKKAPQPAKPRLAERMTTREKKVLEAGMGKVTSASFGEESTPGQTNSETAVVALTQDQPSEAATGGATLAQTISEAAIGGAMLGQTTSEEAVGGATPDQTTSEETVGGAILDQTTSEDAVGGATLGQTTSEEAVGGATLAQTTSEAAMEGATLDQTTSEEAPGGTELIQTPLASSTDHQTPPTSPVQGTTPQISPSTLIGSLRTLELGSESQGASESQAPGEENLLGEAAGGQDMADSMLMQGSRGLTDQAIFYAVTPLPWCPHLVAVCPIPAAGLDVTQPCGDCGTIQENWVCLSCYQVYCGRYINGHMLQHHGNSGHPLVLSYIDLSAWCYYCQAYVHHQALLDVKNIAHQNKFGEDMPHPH

[5] = system: SH-SY5Y; experiment: Induction of neurogenesis in human SH-SY5Y cells assessed as fold induction of MAP2 mRNA expression at 10 uM measured after 24 hrs by RT-PCR analysis relative to retinoic acid; type: functional
[6] = system: SH-SY5Y; experiment: Neuroprotective activity against amyloid beta (1 to 42)-induced cytotoxicity in human SH-SY5Y cells assessed as increase in cell viability at 3 uM after 24 hrs by MTT assay (reference value: 60.4%); type: functional
[7] = biological target: Histone deacetylase 1 (Homo sapiens, UniProt Q13547); experiment: Inhibition of human HDAC1 using fluorogenic substrate incubated for 1 hrs by fluorescence plate reader assay
Histone deacetylase 1, sequence (Q13547 whole entry): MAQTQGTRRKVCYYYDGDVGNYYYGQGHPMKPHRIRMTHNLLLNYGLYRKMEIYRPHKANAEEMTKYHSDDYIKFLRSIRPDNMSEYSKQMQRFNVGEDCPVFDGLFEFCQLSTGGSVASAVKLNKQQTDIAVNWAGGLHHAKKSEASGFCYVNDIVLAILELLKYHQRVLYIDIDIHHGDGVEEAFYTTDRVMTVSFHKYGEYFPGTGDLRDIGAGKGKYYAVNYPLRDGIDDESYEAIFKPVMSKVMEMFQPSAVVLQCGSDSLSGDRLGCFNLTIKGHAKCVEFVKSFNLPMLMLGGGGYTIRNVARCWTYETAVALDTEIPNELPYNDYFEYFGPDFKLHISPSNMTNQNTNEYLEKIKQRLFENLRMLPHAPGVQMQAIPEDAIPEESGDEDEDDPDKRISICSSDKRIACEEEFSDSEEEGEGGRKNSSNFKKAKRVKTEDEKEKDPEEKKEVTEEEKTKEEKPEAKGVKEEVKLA

[8] = biological target: T2, Histone deacetylase 8 (Homo sapiens, UniProt Q9BY41); experiment: Inhibition of human HDAC8 using fluorogenic substrate incubated for 1 hrs by fluorescence plate reader assay
T2 sequence (Q9BY41 whole entry): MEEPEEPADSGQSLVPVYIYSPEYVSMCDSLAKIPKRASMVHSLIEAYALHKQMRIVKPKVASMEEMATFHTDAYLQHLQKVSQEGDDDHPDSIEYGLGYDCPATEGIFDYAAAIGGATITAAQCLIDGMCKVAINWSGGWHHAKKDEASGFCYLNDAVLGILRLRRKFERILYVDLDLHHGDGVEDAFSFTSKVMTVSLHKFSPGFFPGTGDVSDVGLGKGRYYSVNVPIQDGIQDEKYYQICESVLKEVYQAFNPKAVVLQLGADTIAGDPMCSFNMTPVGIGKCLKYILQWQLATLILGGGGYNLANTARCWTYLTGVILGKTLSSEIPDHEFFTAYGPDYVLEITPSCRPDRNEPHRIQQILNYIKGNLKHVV

[9] = biological target: Histone deacetylase 2 (Homo sapiens, UniProt Q92769); experiment: Inhibition of human HDAC2 using fluorogenic substrate incubated for 1 hrs by fluorescence plate reader assay
Histone deacetylase 2, sequence (Q92769 whole entry): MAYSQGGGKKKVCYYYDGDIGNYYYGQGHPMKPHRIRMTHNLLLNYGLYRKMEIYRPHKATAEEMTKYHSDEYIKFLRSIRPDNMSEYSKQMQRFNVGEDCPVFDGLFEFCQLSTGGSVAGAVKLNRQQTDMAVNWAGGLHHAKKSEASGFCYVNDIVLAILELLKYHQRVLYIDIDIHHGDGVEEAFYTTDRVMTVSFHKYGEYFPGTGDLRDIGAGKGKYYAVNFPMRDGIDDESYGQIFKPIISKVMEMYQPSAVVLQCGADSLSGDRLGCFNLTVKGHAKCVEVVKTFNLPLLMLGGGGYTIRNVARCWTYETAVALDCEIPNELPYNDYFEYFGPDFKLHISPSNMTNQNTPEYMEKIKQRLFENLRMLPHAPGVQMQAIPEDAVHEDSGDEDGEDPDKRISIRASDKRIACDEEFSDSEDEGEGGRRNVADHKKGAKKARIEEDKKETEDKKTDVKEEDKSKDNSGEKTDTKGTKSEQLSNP

[10] = biological target: T3, Histone deacetylase 11 (Homo sapiens, UniProt Q96DB2); experiment: Inhibition of human HDAC11 using fluorogenic substrate incubated for 1 hrs by fluorescence plate reader assay
T3 sequence (Q96DB2 whole entry): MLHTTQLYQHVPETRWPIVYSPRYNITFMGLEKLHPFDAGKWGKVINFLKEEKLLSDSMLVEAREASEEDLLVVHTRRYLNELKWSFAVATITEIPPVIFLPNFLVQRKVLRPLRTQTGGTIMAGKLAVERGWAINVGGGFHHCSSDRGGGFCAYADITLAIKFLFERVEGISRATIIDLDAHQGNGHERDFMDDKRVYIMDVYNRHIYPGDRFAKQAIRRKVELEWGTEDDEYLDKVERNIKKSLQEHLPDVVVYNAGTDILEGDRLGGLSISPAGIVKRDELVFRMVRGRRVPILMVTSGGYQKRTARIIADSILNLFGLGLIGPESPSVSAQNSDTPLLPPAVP

[11] = system: SH-SY5Y; experiment: Neuroprotective activity against Cu2+/amyloid beta (1 to 42)-induced toxicity in human SH-SY5Y cells assessed as increase in cell viability at 3 uM after 24 hrs by MTT assay (reference value: 47.2%); type: functional
[12] = biological target: T4, Polyamine deacetylase HDAC10 (Homo sapiens, UniProt Q969S8); experiment: Inhibition of human HDAC10 using fluorogenic substrate incubated for 1 hrs by fluorescence plate reader assay
T4 sequence (Q969S8 whole entry): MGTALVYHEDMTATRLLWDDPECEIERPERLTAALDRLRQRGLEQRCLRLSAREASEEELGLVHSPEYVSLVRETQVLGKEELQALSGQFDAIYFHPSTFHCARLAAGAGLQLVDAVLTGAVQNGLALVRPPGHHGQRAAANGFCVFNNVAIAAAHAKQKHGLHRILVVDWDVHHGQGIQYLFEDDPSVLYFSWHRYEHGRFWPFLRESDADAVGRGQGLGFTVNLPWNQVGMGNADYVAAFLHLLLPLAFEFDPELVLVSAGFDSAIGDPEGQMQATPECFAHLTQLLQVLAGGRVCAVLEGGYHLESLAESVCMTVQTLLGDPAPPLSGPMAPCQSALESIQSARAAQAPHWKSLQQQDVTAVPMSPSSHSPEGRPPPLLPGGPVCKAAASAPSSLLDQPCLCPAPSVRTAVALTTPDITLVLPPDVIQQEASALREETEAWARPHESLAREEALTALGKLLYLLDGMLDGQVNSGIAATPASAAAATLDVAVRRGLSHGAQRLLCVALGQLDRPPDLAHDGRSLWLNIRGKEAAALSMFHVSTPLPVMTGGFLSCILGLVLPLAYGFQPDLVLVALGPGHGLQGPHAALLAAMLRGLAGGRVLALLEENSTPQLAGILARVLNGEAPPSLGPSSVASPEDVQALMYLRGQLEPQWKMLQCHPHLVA

[13] = biological target: Histone deacetylase 4 (Homo sapiens, UniProt P56524); experiment: Inhibition of human HDAC4 using fluorogenic substrate incubated for 1 hrs by fluorescence plate reader assay
Histone deacetylase 4, sequence (P56524 whole entry): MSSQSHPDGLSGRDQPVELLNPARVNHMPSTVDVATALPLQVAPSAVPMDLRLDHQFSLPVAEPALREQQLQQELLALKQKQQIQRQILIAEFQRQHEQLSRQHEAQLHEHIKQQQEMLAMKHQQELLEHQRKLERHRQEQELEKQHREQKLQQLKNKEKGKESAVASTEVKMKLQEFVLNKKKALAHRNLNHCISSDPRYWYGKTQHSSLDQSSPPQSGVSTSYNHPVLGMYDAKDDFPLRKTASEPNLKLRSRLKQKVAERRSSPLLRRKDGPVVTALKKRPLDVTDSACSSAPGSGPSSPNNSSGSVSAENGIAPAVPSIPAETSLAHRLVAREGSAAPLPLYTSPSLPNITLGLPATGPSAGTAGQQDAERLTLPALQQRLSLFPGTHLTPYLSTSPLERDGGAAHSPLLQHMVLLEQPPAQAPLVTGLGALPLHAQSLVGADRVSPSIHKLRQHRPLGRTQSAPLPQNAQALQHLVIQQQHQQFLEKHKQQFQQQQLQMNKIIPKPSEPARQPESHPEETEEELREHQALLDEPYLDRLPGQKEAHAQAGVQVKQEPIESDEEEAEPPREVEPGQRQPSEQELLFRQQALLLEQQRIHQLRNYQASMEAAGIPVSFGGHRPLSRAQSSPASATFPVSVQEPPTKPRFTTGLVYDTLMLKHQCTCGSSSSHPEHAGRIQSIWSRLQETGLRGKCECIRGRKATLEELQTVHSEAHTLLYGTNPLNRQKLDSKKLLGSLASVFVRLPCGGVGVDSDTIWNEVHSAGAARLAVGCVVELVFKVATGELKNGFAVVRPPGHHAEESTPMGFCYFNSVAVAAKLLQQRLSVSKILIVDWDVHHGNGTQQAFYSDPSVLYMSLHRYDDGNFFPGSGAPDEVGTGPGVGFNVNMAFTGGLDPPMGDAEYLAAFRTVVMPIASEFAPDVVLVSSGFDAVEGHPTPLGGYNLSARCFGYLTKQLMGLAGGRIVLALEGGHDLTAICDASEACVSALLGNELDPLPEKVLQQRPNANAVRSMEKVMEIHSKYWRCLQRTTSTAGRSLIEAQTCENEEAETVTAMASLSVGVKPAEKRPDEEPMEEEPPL

[14] = system: SH-SY5Y; experiment: Cytotoxicity against human SH-SY5Y cells assessed as cell viability incubated for 24 hrs by MTT assay; type: cell-based
[15] = system: SH-SY5Y; experiment: Induction of neurogenesis in human SH-SY5Y cells assessed as fold induction of N-myc mRNA expression at 10 uM measured after 24 hrs by RT-PCR analysis relative to retinoic acid; type: functional
[16] = system: SH-SY5Y; experiment: Induction of neurogenesis in human SH-SY5Y cells assessed as fold induction of GAP-43 mRNA expression at 10 uM measured after 24 hrs by RT-PCR analysis relative to retinoic acid; type: functional
[17] = biological target: T5, Protein deacetylase HDAC6 (Homo sapiens) (UniProt Q9UBN7); experiment: Inhibition of HDAC6 in human SH-SY5Y cells assessed as increase in acetylated alpha tubulin level measured after 24 hrs by Western blot analysis; type: cell-based; settings: dose 0.25-1 µM
T5 sequence (whole entry): T1 sequence (Q9UBN7 whole entry)

[18] = biological target: T5, Protein deacetylase HDAC6 (Homo sapiens); experiment: Inhibition of HDAC6 in human SH-SY5Y cells assessed as reduction in tau phosphorylation at Ser396 residue by Western blot analysis; type: cell-based
[19] = species on record: Homo sapiens; experiment: Selectivity ratio of IC50 for human HDAC6 to IC50 for human HDAC1
[20] = species on record: Homo sapiens; experiment: Selectivity ratio of IC50 for human HDAC6 to IC50 for human HDAC8
[21] = species on record: Homo sapiens; experiment: Selectivity ratio of IC50 for human HDAC6 to IC50 for human HDAC4
[22] = species on record: Homo sapiens; experiment: Selectivity ratio of IC50 for human HDAC6 to IC50 for human HDAC11
[23] = species on record: Homo sapiens; experiment: Selectivity ratio of IC50 for human HDAC6 to IC50 for human HDAC10
[24] = system: SH-SY5Y; experiment: Induction of neurite outgrowth in human SH-SY5Y cells at 10 uM incubated for 3 days by inverted microscopy; type: functional, cell-based; settings: time 3.0 day
[25] = Disaggregation of Cu2+ induced amyloid beta (1 to 42 residues) (unknown origin) aggregation measuring reduction in fluorescence intensity at 20 uM after 24 hrs by thioflavin-T fluorescence method relative to control; design: scale not given: the % may be the effect or the level left
[26] = biological target: T5, Protein deacetylase HDAC6 (Homo sapiens); experiment: Inhibition of HDAC6 in human SH-SY5Y cells assessed as reduction in tau phosphorylation at Ser396 residue at 20 uM by Western blot analysis; type: cell-based
[27] = biological target: T5, Protein deacetylase HDAC6 (Homo sapiens); experiment: Inhibition of HDAC6 in human SH-SY5Y cells assessed as increase in acetylated histone level measured after 24 hrs by Western blot analysis; type: cell-based
[28] = species on record: Homo sapiens; experiment: Selectivity ratio of IC50 for human HDAC6 to IC50 for human HDAC2

CC1=C(/C=C/C(C)=C/C=C/C(C)=C/C(=O)O)C(C)(C)CCC1 [TRETINOIN]
Activity [1]: 2.07 | Activity [2]: 2.13 | Activity [3]: 2.3

CCNC(=O)c1ccc(CN2c3ccccc3Sc3ccccc32)nc1
IC50 [4]: > 1 µM

Cl.O=C(NO)c1ccc(CN2c3ccccc3Sc3ccccc32)nc1
fold change (FC) [5]: 2 | Activity [6]: 76.3% | IC50 [7]: 0.743 µM | IC50 [4]: 0.00254 µM | IC50 [8]: 6.12 µM | Activity [1]: 5.71 | IC50 [9]: 1.96 µM | IC50 [10]: 4.3 µM | Activity [11]: 82% | IC50 [12]: 8.63 µM | IC50 [13]: 5.63 µM | Activity [2]: 4.79 | IC50 [14]: 115 µM | fold change (FC) [15]: 2 | Activity [3]: 6.28 | fold change (FC) [16]: 2

CN(Cc1ccc(C(=O)NO)cn1)C12CC3C[C@@](C)(C1)C[C@](C)(C3)C2
IC50 [4]: 0.835 µM

O=C(NO)c1ccc(CN2c3ccccc3Sc3ccccc32)nc1 [listing 1 of 2 here]
inhibition [17]: Dose-Dependent Effect | inhibition [18]: Dose-Dependent Effect | Selectivity ratio [19]: 292 | Selectivity ratio [20]: 2410 | Selectivity ratio [21]: 2220 | Selectivity ratio [22]: 1690 | Selectivity ratio [23]: 3400 | Activity [24]: Active | Activity [25]: 40% | inhibition [26]: 50% | inhibition [27]: Active | Selectivity ratio [28]: 772

O=C(Cn1cc(CN2c3ccccc3Sc3ccccc32)cn1)NO
IC50 [4]: > 1 µM

COc1cc(/C=C/C(=O)CC(=O)/C=C/c2ccc(O)c(OC)c2)ccc1O [CURCUMIN]
Activity [6]: 74.6%

O=C(NO)c1ccc(CN2c3ccccc3Sc3ccccc32)nc1 [listing 2 of 2 here]
IC50 [4]: 0.011 µM

CNC(=O)c1ccc(CN(C)C23CC4C[C@@](C)(C2)C[C@](C)(C4)C3)nc1
IC50 [4]: > 1 µM
